Experimental data published in patent US20090317436A1, “COMPUTER DEVICES AND ACCESSORIES” (priority 2006, published 2009).

Assays:
Assay type in all cases: cell-based
[1] = test system: Staphylococcus aureus NCTC 6571; assay: Lethal photosensitization of S. aureus by photosensitizer-gold nanoparticle mixtures (Examples 2-8, Table 2), viable counting; conditions: for effect of diluting the gold nanoparticles on killing of S. aureus: 2 nm gold nanoparticles; for enhancement of lethal photosensitization compared with TB in the absence of nanogold: 15 nm nanogold
Method: Gold nanoparticles of approximately 15 nm in diameter (batches NN1 and NN2 above) were mixed with an equal volume of aqueous toluidine blue O (TB) and left at room temperature for 15 minutes. TB was used at a final concentration of 1, 5, 10, 20 or 50 μM.
100 μl of the TB-gold mixture was added to 100 μl of a suspension of Staphylococcus aureus NCTC 6571 in phosphate buffered saline (PBS) (adjusted to an optical density of 0.05), and samples were irradiated with a fluorescent white light (28 W) for 10 minutes. S. aureus+TB only, and S. aureus+PBS, without photosensitizer or nanogold were used as controls. The final concentration of nanogold used was 1×10^15 particles/ml.
After irradiation, the numbers of surviving bacteria were enumerated by viable counting.
The method of Example 2 was repeated using gold nanoparticles of 2 nm diameter (British Biocell International). The final concentration of nanogold used was 4×10^13 particles/ml. TB was used at a final concentration of 10, 20 or 50 μM.
Experiments were performed as for Example 3, with the following modifications: Prior to mixing with the photosensitizer, the gold nanoparticles were either left undiluted, or diluted 1 in 10 or 1 in 100 in sterile, distilled water. The nanoparticles were then added to TB (final concentration 20 μM).
The samples were then illuminated for 30 seconds using a fibre optic white light source (Schott KL200). The surviving bacteria were enumerated by viable counting as before.
Example 4 was repeated using methylene blue (MB; 20 μM) as the photosensitizer.
Example 5 was repeated using 2 nm gold nanoparticles (British Biocell International).
Example 6 was repeated using tin chlorin e6 (SnCe6; 20 μg/ml) as the photosensitizer. The illumination time was 10 minutes. […]

[2] = test system: Staphylococcus aureus NCTC 6571; assay: as above; conditions: Example 2
[3] = test system: Staphylococcus aureus NCTC 6571; assay: Lethal photosensitization of S. aureus using a different TBO-tiopronin-gold nanoparticle conjugate (Examples 6-7, Table 4); conditions: white light 30 mins; free TBO control
[4] = test system: Staphylococcus aureus NCTC 6571; assay: Lethal photosensitization of S. aureus by toluidine blue/gold nanoparticle mixture (Example 1), viable counting
Method: Gold nanoparticles (2.0 nm diameter; British Biocell International) in water (15×10^13 particles per ml) were mixed with an equal volume of an aqueous solution of toluidine blue O (40 μM) and left at room temperature for 15 minutes. 100 μl of the gold-TB solution was added to 100 μl of a suspension of Staphylococcus aureus NCTC 6571 in phosphate buffered saline (PBS) and this was irradiated with white light from an 18 W fluorescent white lamp for 10 minutes. Controls consisted of: • (i) TB (final concentration=10 μM) and bacteria, irradiated for the same period of time, • (ii) nanogold (diluted 1:1 with water) and bacteria, irradiated for the same period of time, • (iii) bacteria without TB or nanogold, not irradiated (“control”).
After irradiation, the number of surviving bacteria was determined by viable counting.

[5] = test system: Staphylococcus aureus NCTC 6571; assay: Lethal photosensitization of S. aureus using TBO-tiopronin-gold nanoparticle conjugate (Examples 2-5, Table 3); conditions: Example 4, any length of time

Compound: CN(C)c1ccc2nc3ccc(=[N+](C)C)cc-3sc2c1 [Methylene blue, methylene blue]
- effectiveness of combination against Staphylococcus aureus ([1]; 20 mM with 2 nm gold nanoparticles at 4×10^11 to 4×10^13 particles/ml): particularly effective
- effectiveness of combination against Staphylococcus aureus ([1]; 20 mM with 15 nm gold nanoparticles at 1×10^13 to 1×10^15 particles/ml): particularly effective
- Result (% kill class) ([1]; Example 5, photosensitiser 20 mM, gold nanoparticles 15 nm, 1 × 10^13 particles/ml, fibre optic white light 30 seconds): **** (99-100% kill)
- Result (% kill class) ([1]; Example 5, photosensitiser 20 mM, gold nanoparticles 15 nm, 1 × 10^14 particles/ml, fibre optic white light 30 seconds): **** (99-100% kill)
- Result (% kill class) ([1]; Example 5, photosensitiser 20 mM, gold nanoparticles 15 nm, 1 × 10^15 particles/ml, fibre optic white light 30 seconds): **** (99-100% kill)
- effect of diluting the gold nanoparticles on killing of S. aureus ([1]; Example 6, MB 20 μM): enhanced the killing of S. aureus slightly
- Result (% kill class) ([1]; Example 6, photosensitiser 20 mM, gold nanoparticles 2 nm, 4 × 10^11 particles/ml, fibre optic white light 30 seconds): **** (99-100% kill)
- Result (% kill class) ([1]; Example 6, photosensitiser 20 mM, gold nanoparticles 2 nm, 4 × 10^12 particles/ml, fibre optic white light 30 seconds): **** (99-100% kill)
- Result (% kill class) ([1]; Example 6, photosensitiser 20 mM, gold nanoparticles 2 nm, 4 × 10^13 particles/ml, fibre optic white light 30 seconds): **** (99-100% kill)

Compound: Cc1cc2nc3ccc(N(C)C)cc3[s+]c2cc1N.[Cl-] [Toluidine blue, toluidine blue O]
- Result (% kill class) ([2]; photosensitiser 100 mM, gold nanoparticles 15 nm, 1 × 10^15 particles/ml, fluorescent white light (28 W) 10 minutes): ** (90-95% kill)
- enhancement of lethal photosensitization ([2]; with nanogold, TB 10 or 100 μM): little enhancement
- kills of the organism (in words) [3]: significant kills of the organism only at a concentration of 2.0 μm
- effectiveness of combination against Staphylococcus aureus ([1]; 20 mM with 2 nm gold nanoparticles at 4×10^13 particles/ml): particularly effective
- enhancement of lethal photosensitization ([1]; 2 nm nanogold particles, 10 μM or 50 μM TB): not when either 10 μM or 50 μM TB was used
- enhancement of lethal photosensitization ([1]; 2 nm nanogold particles, 20 μM TB): enhancement of lethal photosensitization was evident
- enhancement of lethal photosensitization compared with TB in the absence of nanogold ([1]; TB 1 μM): little enhancement
- enhancement of lethal photosensitization compared with TB in the absence of nanogold ([1]; TB 5, 10 and 20 μM): enhancement was evident
- enhancement of lethal photosensitization compared with TB in the absence of nanogold ([1]; TB 10 and 20 μM): Enhancement was greatest
- effectiveness of combination against Staphylococcus aureus ([1]; 20 to 50 mM with 15 nm gold nanoparticles at 1×10^14 to 1×10^15 particles/ml): particularly effective
- Result (% kill class) ([1]; Example 2, photosensitiser 1 mM, gold nanoparticles 15 nm, 1 × 10^15 particles/ml, fluorescent white light (28 W) 10 minutes): — (less than 50% kill)
- Result (% kill class) ([1]; Example 2, photosensitiser 5 mM, gold nanoparticles 15 nm, 1 × 10^15 particles/ml, fluorescent white light (28 W) 10 minutes): * (50-90% kill)
- Result (% kill class) ([1]; Example 2, photosensitiser 20 mM, gold nanoparticles 15 nm, 1 × 10^15 particles/ml, fluorescent white light (28 W) 10 minutes): **** (99-100% kill)
- Result (% kill class) ([1]; Example 2, photosensitiser 50 mM, gold nanoparticles 15 nm, 1 × 10^15 particles/ml, fluorescent white light (28 W) 10 minutes): **** (99-100% kill)
- enhancement of lethal photosensitization ([1]; Example 2, with nanogold, TB 20 and 50 μM): enhancement was greatest
- Result (% kill class) ([1]; Example 3, photosensitiser 10 mM, gold nanoparticles 2 nm, 4 × 10^13 particles/ml, fluorescent white light (28 W) 10 minutes): * (50-90% kill)
- Result (% kill class) ([1]; Example 3, photosensitiser 20 mM, gold nanoparticles 2 nm, 4 × 10^13 particles/ml, fluorescent white light (28 W) 10 minutes): **** (99-100% kill)
- Result (% kill class) ([1]; Example 3, photosensitiser 50 mM, gold nanoparticles 2 nm, 4 × 10^13 particles/ml, fluorescent white light (28 W) 10 minutes): * (50-90% kill)
- enhancement compared with undiluted nanogold ([1]; Example 4, TB 20 μM, nanoparticles diluted 1 in 10, white light 30 seconds): greater enhancement
- Result (% kill class) ([1]; Example 4, photosensitiser 20 mM, gold nanoparticles 15 nm, 1 × 10^14 particles/ml, fibre optic white light 30 seconds): **** (99-100% kill)
- Result (% kill class) ([1]; Example 4, photosensitiser 20 mM, gold nanoparticles 15 nm, 1 × 10^15 particles/ml, fibre optic white light 30 seconds): *** (95-99% kill)
- % Kill ([4]; 18 W fluorescent white lamp 10 minutes, TB final 10 μM, 2.0 nm gold nanoparticles): 93.7%
- kill of the bacterial suspensions ([4]; preliminary experiments, 30 minutes light exposure): total kills
- S. aureus (cfu/ml) ([4]; surviving bacteria after 18 W fluorescent white lamp 10 minutes, TB final 10 μM, 2.0 nm gold nanoparticles): 8570000 cfu/ml
- effect when irradiated with white light [5]: no effect

Compound: C=CC1=C(C)C2=CC3=NC(=C(CC(=O)[O-])C4=NC(=C(C)C4=C([O-])[O-])C=c4[n-]c(c(C)c4CC)=CC1=N2)C(CCC(=O)[O-])C3C.[H+].[Sn+4] (stereo not shown) [Tin chlorine6, tin chlorin e6]
- effectiveness of combination against Staphylococcus aureus ([1]; 20 mg/ml with 2 nm gold nanoparticles at 4×10^11 particles/ml): particularly effective
- effect of diluting the gold nanoparticles on killing of S. aureus ([1]; Example 7, SnCe6 20 μg/ml, illumination 10 minutes): enhanced the killing of S. aureus
- Result (% kill class) ([1]; Example 7, photosensitiser 20 m/ml, gold nanoparticles 2 nm, 4 × 10^11 particles/ml, illumination 10 minutes): *** (95-99% kill)
- Result (% kill class) ([1]; Example 7, photosensitiser 20 m/ml, gold nanoparticles 2 nm, 4 × 10^12 particles/ml, illumination 10 minutes): ** (90-95% kill)
- Result (% kill class) ([1]; Example 7, photosensitiser 20 m/ml, gold nanoparticles 2 nm, 4 × 10^13 particles/ml, illumination 10 minutes): — (less than 50% kill)

Compound: nile blue sulphate
- effectiveness of combination against Staphylococcus aureus ([1]; 20 to 50 mM with 2 nm gold nanoparticles at 4×10^13 particles/ml): particularly effective
- Result (% kill class) ([1]; Example 8, photosensitiser 10 mM, gold nanoparticles 2 nm, 4 × 10^13 particles/ml, illuminated 30 minutes): *** (95-99% kill)
- Result (% kill class) ([1]; Example 8, photosensitiser 20 mM, gold nanoparticles 2 nm, 4 × 10^13 particles/ml, illuminated 30 minutes): **** (99-100% kill)
- Result (% kill class) ([1]; Example 8, photosensitiser 50 mM, gold nanoparticles 2 nm, 4 × 10^13 particles/ml, illuminated 30 minutes): **** (99-100% kill)
